One series concerns the target T1, Mu-type opioid receptor (Homo sapiens, UniProt P35372). Put plainly: Displacement of [3H]-DAMGO from recombinant human MOR expressed in CHO cell membranes measured after 2 hrs by microbeta scintillation counting method.
Conditions: not given
Also noted: species or system Membrane.
T2 sequence (P41143 whole entry): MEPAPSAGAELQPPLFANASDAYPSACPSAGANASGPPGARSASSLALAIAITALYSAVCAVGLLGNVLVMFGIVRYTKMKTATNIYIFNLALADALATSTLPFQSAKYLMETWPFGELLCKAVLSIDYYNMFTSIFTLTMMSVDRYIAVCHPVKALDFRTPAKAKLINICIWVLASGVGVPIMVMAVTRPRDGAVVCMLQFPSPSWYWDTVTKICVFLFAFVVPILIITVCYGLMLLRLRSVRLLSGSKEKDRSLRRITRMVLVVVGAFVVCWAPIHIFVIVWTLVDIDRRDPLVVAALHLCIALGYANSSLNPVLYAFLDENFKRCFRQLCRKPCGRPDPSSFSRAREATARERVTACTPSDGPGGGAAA
T1 sequence (P35372 whole entry): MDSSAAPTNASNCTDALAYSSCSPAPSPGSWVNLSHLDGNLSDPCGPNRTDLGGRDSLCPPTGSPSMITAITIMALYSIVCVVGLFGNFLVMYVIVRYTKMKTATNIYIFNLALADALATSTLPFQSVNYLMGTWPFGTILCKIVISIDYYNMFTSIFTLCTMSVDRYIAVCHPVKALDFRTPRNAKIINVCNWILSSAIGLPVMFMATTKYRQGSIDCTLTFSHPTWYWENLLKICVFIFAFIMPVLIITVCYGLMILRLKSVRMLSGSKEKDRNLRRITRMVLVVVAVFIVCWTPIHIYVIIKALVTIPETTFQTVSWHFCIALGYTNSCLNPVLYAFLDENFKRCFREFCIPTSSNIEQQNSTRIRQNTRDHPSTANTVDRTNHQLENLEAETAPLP
In general, Ki refers to a dissociation constant, usually derived from enzyme kinetics or from competition with a known ligand. Regarding `O=C(Cc1ccccc1)N[C@@H]1C[C@]23CCN(CC4CC4)[C@H](Cc4ccc(O)cc42)[C@]32CC[C@@H]1O2`, the Ki was 0.267 nM.

On to `CN(C(=O)Cc1ccccc1)[C@@H]1C[C@]23CCN(CC4CC4)[C@H](Cc4ccc(O)cc42)[C@]32CC[C@@H]1O2`, for which the inhibitory constant (Ki) was 1.74 nM.

Take `O=C(CCc1ccccc1)N[C@@H]1C[C@]23CCN(CC4CC4)[C@H](Cc4ccc(O)cc42)[C@]32CC[C@@H]1O2`: the Ki was determined as 0.126 nM.

Consider `O=C(CCc1ccccc1)N[C@H]1C[C@]23CCN(CC4CC4)[C@H](Cc4ccc(O)cc42)[C@]32CC[C@@H]1O2`, for which the Ki came out at 1.08 nM.

For `O=C(Cc1ccccc1)N[C@H]1C[C@]23CCN(CC4CC4)[C@H](Cc4ccc(O)cc42)[C@]32CC[C@@H]1O2`, the Ki was 3.81 nM.

A further series addresses T2, Delta-type opioid receptor (Homo sapiens, UniProt P41143). Briefly: Displacement of [3H]-DPDPE from recombinant human DOR expressed in CHO cell membranes measured after 2 hrs by microbeta scintillation counting method. Also on record: species or system Membrane.
Conditions: not given
As for `O=C(Cc1ccccc1)N[C@@H]1C[C@]23CCN(CC4CC4)[C@H](Cc4ccc(O)cc42)[C@]32CC[C@@H]1O2`, the Ki was determined as 0.522 nM.

In the case of `CN(C(=O)Cc1ccccc1)[C@@H]1C[C@]23CCN(CC4CC4)[C@H](Cc4ccc(O)cc42)[C@]32CC[C@@H]1O2`, the Ki was determined as 19.5 nM.

Consider `O=C(CCc1ccccc1)N[C@@H]1C[C@]23CCN(CC4CC4)[C@H](Cc4ccc(O)cc42)[C@]32CC[C@@H]1O2`, for which the Ki was 5.18 nM.

Take `O=C(CCc1ccccc1)N[C@H]1C[C@]23CCN(CC4CC4)[C@H](Cc4ccc(O)cc42)[C@]32CC[C@@H]1O2`: the Ki is 5.14 nM.

With `O=C(Cc1ccccc1)N[C@H]1C[C@]23CCN(CC4CC4)[C@H](Cc4ccc(O)cc42)[C@]32CC[C@@H]1O2`, the Ki was 4.98 nM.

The target of the next series is T3, Kappa-type opioid receptor (Homo sapiens, UniProt P41145). Put plainly: Displacement of [3H]-U-69593 from recombinant human KOR expressed in CHO cell membranes measured after 2 hrs by microbeta scintillation counting method. Also on record: species or system Membrane.
T3 sequence (P41145 whole entry): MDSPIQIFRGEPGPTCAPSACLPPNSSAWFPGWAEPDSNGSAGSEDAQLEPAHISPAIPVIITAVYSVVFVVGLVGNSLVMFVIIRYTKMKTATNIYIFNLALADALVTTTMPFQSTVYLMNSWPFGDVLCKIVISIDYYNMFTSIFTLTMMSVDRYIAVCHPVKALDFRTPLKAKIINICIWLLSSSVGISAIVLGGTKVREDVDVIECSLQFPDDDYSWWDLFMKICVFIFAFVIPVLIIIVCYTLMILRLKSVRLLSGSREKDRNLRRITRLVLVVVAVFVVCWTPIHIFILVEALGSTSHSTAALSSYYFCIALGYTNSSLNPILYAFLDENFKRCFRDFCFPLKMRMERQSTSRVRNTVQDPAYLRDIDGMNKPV
Conditions: not given
Regarding `O=C(Cc1ccccc1)N[C@@H]1C[C@]23CCN(CC4CC4)[C@H](Cc4ccc(O)cc42)[C@]32CC[C@@H]1O2`, the inhibitory constant (Ki) was determined as 0.193 nM.

Regarding `CN(C(=O)Cc1ccccc1)[C@@H]1C[C@]23CCN(CC4CC4)[C@H](Cc4ccc(O)cc42)[C@]32CC[C@@H]1O2`, the Ki was determined as 0.278 nM.

Take `O=C(CCc1ccccc1)N[C@@H]1C[C@]23CCN(CC4CC4)[C@H](Cc4ccc(O)cc42)[C@]32CC[C@@H]1O2`: the inhibition constant Ki worked out at 0.197 nM.

Take `O=C(CCc1ccccc1)N[C@H]1C[C@]23CCN(CC4CC4)[C@H](Cc4ccc(O)cc42)[C@]32CC[C@@H]1O2`: the inhibitory constant (Ki) worked out at 2.36 nM.

For the compound `O=C(Cc1ccccc1)N[C@H]1C[C@]23CCN(CC4CC4)[C@H](Cc4ccc(O)cc42)[C@]32CC[C@@H]1O2`, the Ki was 1.71 nM.

The species entered for the next series is Homo sapiens. Put plainly: Selectivity ratio of Ki for displacement of [3H]-DAMGO from recombinant human MOR expressed in CHO cell membranes to Ki for displacement of [3H]-U-69593 from recombinant human KOR expressed in CHO cell membranes.
Conditions: not given
In general terms: In a radioligand displacement assay an active substance lowers the binding of a labelled ligand.
Regarding `O=C(Cc1ccccc1)N[C@@H]1C[C@]23CCN(CC4CC4)[C@H](Cc4ccc(O)cc42)[C@]32CC[C@@H]1O2`, the Ratio Ki was determined as 1.4.

Take `CN(C(=O)Cc1ccccc1)[C@@H]1C[C@]23CCN(CC4CC4)[C@H](Cc4ccc(O)cc42)[C@]32CC[C@@H]1O2`: the Ratio Ki was found to be 6.3.

For `O=C(CCc1ccccc1)N[C@@H]1C[C@]23CCN(CC4CC4)[C@H](Cc4ccc(O)cc42)[C@]32CC[C@@H]1O2`, the Ratio Ki worked out at 0.64.

Regarding `O=C(CCc1ccccc1)N[C@H]1C[C@]23CCN(CC4CC4)[C@H](Cc4ccc(O)cc42)[C@]32CC[C@@H]1O2`, the Ratio Ki is 0.46.

As for `O=C(Cc1ccccc1)N[C@H]1C[C@]23CCN(CC4CC4)[C@H](Cc4ccc(O)cc42)[C@]32CC[C@@H]1O2`, the Ratio Ki came to 2.2.

The species named for another series is Homo sapiens. Briefly: Selectivity ratio of Ki for displacement of [3H]-DPDPE from recombinant human DOR expressed in CHO cell membranes to Ki for displacement of [3H]-U-69593 from recombinant human KOR expressed in CHO cell membranes.
Conditions: not given
For `O=C(Cc1ccccc1)N[C@@H]1C[C@]23CCN(CC4CC4)[C@H](Cc4ccc(O)cc42)[C@]32CC[C@@H]1O2`, the Ratio Ki worked out at 2.7.

Consider `CN(C(=O)Cc1ccccc1)[C@@H]1C[C@]23CCN(CC4CC4)[C@H](Cc4ccc(O)cc42)[C@]32CC[C@@H]1O2`, for which the Ratio Ki was found to be 70.1.

In the case of `O=C(CCc1ccccc1)N[C@@H]1C[C@]23CCN(CC4CC4)[C@H](Cc4ccc(O)cc42)[C@]32CC[C@@H]1O2`, the Ratio Ki came to 26.3.

Consider `O=C(CCc1ccccc1)N[C@H]1C[C@]23CCN(CC4CC4)[C@H](Cc4ccc(O)cc42)[C@]32CC[C@@H]1O2`, for which the Ratio Ki was 2.2.

Turning to `O=C(Cc1ccccc1)N[C@H]1C[C@]23CCN(CC4CC4)[C@H](Cc4ccc(O)cc42)[C@]32CC[C@@H]1O2`, the Ratio Ki turned out to be 2.9.

Another series addresses T1, Mu-type opioid receptor. Put plainly: Agonist activity at human mu opioid receptor expressed in CHO cell membranes assessed as stimulation of [35S]GTPgammaS binding incubated for 2 hrs by scintillation counting method. Also noted: species or system Membrane.
Conditions: not given
(GTPγS resists hydrolysis and so accumulates on activated G proteins.)
The term EC50 denotes the concentration at which the effect is half-maximal. For the compound `O=C(Cc1ccccc1)N[C@@H]1C[C@]23CCN(CC4CC4)[C@H](Cc4ccc(O)cc42)[C@]32CC[C@@H]1O2`, the concentration for a half-maximal effect (EC50) came to 9.43 nM.

For the compound `CN(C(=O)Cc1ccccc1)[C@@H]1C[C@]23CCN(CC4CC4)[C@H](Cc4ccc(O)cc42)[C@]32CC[C@@H]1O2`, the 50% effective concentration (EC50) is 7.11 nM.

On to `O=C(CCc1ccccc1)N[C@@H]1C[C@]23CCN(CC4CC4)[C@H](Cc4ccc(O)cc42)[C@]32CC[C@@H]1O2`, for which the concentration for a half-maximal effect (EC50) was found to be 12.7 nM.

For the compound `O=C(CCc1ccccc1)N[C@H]1C[C@]23CCN(CC4CC4)[C@H](Cc4ccc(O)cc42)[C@]32CC[C@@H]1O2`, the concentration giving a half-maximal response (EC50) stood at 9.35 nM.

With `O=C(Cc1ccccc1)N[C@H]1C[C@]23CCN(CC4CC4)[C@H](Cc4ccc(O)cc42)[C@]32CC[C@@H]1O2`, the EC50 was 5.37 nM.

The target in the next series is mu opioid receptor (MOR) (Homo sapiens, UniProt P35372). Briefly: Agonist activity at human mu opioid receptor expressed in CHO cell membranes assessed as stimulation of [35S]GTPgammaS binding incubated for 2 hrs by scintillation counting method relative to DAMGO. Also on record: species or system Membrane. The following applies: CHO cell membranes expressing human mu opioid receptor, probe [35S]GTPgammaS.
mu opioid receptor (MOR), sequence (P35372 whole entry): as the sequence (P35372 whole entry) above
One may read the Emax as the greatest response seen or fitted, relative to the assay's reference. For `O=C(Cc1ccccc1)N[C@@H]1C[C@]23CCN(CC4CC4)[C@H](Cc4ccc(O)cc42)[C@]32CC[C@@H]1O2`, the Emax at 2 h stood at 28.2%.

`CN(C(=O)Cc1ccccc1)[C@@H]1C[C@]23CCN(CC4CC4)[C@H](Cc4ccc(O)cc42)[C@]32CC[C@@H]1O2`: the Emax at 2 h turned out to be 40.3%.

For the compound `O=C(CCc1ccccc1)N[C@@H]1C[C@]23CCN(CC4CC4)[C@H](Cc4ccc(O)cc42)[C@]32CC[C@@H]1O2`, the Emax at 2 h was found to be 10.2%.

Take `O=C(CCc1ccccc1)N[C@H]1C[C@]23CCN(CC4CC4)[C@H](Cc4ccc(O)cc42)[C@]32CC[C@@H]1O2`: the maximal response (Emax) at 2 h stood at 11.4%.

For `O=C(Cc1ccccc1)N[C@H]1C[C@]23CCN(CC4CC4)[C@H](Cc4ccc(O)cc42)[C@]32CC[C@@H]1O2`, the Emax at 2 h came to 8.7%.

Another series has as its target T2, Delta-type opioid receptor. Briefly: Agonist activity at human delta opioid receptor expressed in CHO cell membranes assessed as stimulation of [35S]GTPgammaS binding incubated for 2 hrs by scintillation counting method. It counts as functional, Membrane.
Conditions: not given
Regarding `O=C(Cc1ccccc1)N[C@@H]1C[C@]23CCN(CC4CC4)[C@H](Cc4ccc(O)cc42)[C@]32CC[C@@H]1O2`, the EC50 worked out at 5.96 nM.

As to `CN(C(=O)Cc1ccccc1)[C@@H]1C[C@]23CCN(CC4CC4)[C@H](Cc4ccc(O)cc42)[C@]32CC[C@@H]1O2`, the EC50 was 43.6 nM.

As to `O=C(CCc1ccccc1)N[C@@H]1C[C@]23CCN(CC4CC4)[C@H](Cc4ccc(O)cc42)[C@]32CC[C@@H]1O2`, the half-maximal effective concentration (EC50) stood at 112 nM.

With `O=C(CCc1ccccc1)N[C@H]1C[C@]23CCN(CC4CC4)[C@H](Cc4ccc(O)cc42)[C@]32CC[C@@H]1O2`, the concentration for a half-maximal effect (EC50) came to 54.7 nM.

Consider `O=C(Cc1ccccc1)N[C@H]1C[C@]23CCN(CC4CC4)[C@H](Cc4ccc(O)cc42)[C@]32CC[C@@H]1O2`, for which the EC50 came to 3.83 nM.

For the next series, the target named is T2, Delta-type opioid receptor. Put plainly: Agonist activity at human delta opioid receptor expressed in CHO cell membranes assessed as stimulation of [35S]GTPgammaS binding incubated for 2 hrs by scintillation counting method relative to SNC80. Particulars: Membrane. The series is classed as functional.
On to `CN(C(=O)Cc1ccccc1)[C@@H]1C[C@]23CCN(CC4CC4)[C@H](Cc4ccc(O)cc42)[C@]32CC[C@@H]1O2`, for which the maximal response (Emax) was 39.7%.

Still in this series, the particulars now being: Membrane, filed as agonist.
`O=C(Cc1ccccc1)N[C@@H]1C[C@]23CCN(CC4CC4)[C@H](Cc4ccc(O)cc42)[C@]32CC[C@@H]1O2`: the maximal effect (Emax) came to 85.3%.

Consider `O=C(CCc1ccccc1)N[C@@H]1C[C@]23CCN(CC4CC4)[C@H](Cc4ccc(O)cc42)[C@]32CC[C@@H]1O2`, for which the Emax amounted to 104%.

With `O=C(CCc1ccccc1)N[C@H]1C[C@]23CCN(CC4CC4)[C@H](Cc4ccc(O)cc42)[C@]32CC[C@@H]1O2`, the Emax turned out to be 111%.

In the case of `O=C(Cc1ccccc1)N[C@H]1C[C@]23CCN(CC4CC4)[C@H](Cc4ccc(O)cc42)[C@]32CC[C@@H]1O2`, the Emax is 101%.

Another series has as its target T3, Kappa-type opioid receptor. Put plainly: Agonist activity at human kappa opioid receptor expressed in CHO cell membranes assessed as stimulation of [35S]GTPgammaS binding incubated for 2 hrs by scintillation counting method.
Conditions: not given
It counts as functional, Membrane.
For the compound `O=C(Cc1ccccc1)N[C@@H]1C[C@]23CCN(CC4CC4)[C@H](Cc4ccc(O)cc42)[C@]32CC[C@@H]1O2`, the EC50 was determined as 3.11 nM.

Consider `CN(C(=O)Cc1ccccc1)[C@@H]1C[C@]23CCN(CC4CC4)[C@H](Cc4ccc(O)cc42)[C@]32CC[C@@H]1O2`, for which the EC50 came to 8.44 nM.

As to `O=C(CCc1ccccc1)N[C@@H]1C[C@]23CCN(CC4CC4)[C@H](Cc4ccc(O)cc42)[C@]32CC[C@@H]1O2`, the concentration giving a half-maximal response (EC50) came out at 5.31 nM.

In the case of `O=C(CCc1ccccc1)N[C@H]1C[C@]23CCN(CC4CC4)[C@H](Cc4ccc(O)cc42)[C@]32CC[C@@H]1O2`, the EC50 was 6.32 nM.

`O=C(Cc1ccccc1)N[C@H]1C[C@]23CCN(CC4CC4)[C@H](Cc4ccc(O)cc42)[C@]32CC[C@@H]1O2`: the EC50 turned out to be 13.4 nM.

Another series concerns the target T3, Kappa-type opioid receptor. Put plainly: Agonist activity at human kappa opioid receptor expressed in CHO cell membranes assessed as stimulation of [35S]GTPgammaS binding incubated for 2 hrs by scintillation counting method relative to U-69593. The series is classed as functional. The following applies: Membrane.
On to `O=C(Cc1ccccc1)N[C@H]1C[C@]23CCN(CC4CC4)[C@H](Cc4ccc(O)cc42)[C@]32CC[C@@H]1O2`, for which the maximal response (Emax) worked out at 35.8%.

The series is the same for the next values; noted with them: Membrane, filed as partial agonist.
As to `O=C(Cc1ccccc1)N[C@@H]1C[C@]23CCN(CC4CC4)[C@H](Cc4ccc(O)cc42)[C@]32CC[C@@H]1O2`, the maximal effect (Emax) amounted to 68.4%.

Turning to `CN(C(=O)Cc1ccccc1)[C@@H]1C[C@]23CCN(CC4CC4)[C@H](Cc4ccc(O)cc42)[C@]32CC[C@@H]1O2`, the Emax stood at 88.6%.

As to `O=C(CCc1ccccc1)N[C@@H]1C[C@]23CCN(CC4CC4)[C@H](Cc4ccc(O)cc42)[C@]32CC[C@@H]1O2`, the Emax turned out to be 75.4%.

On to `O=C(CCc1ccccc1)N[C@H]1C[C@]23CCN(CC4CC4)[C@H](Cc4ccc(O)cc42)[C@]32CC[C@@H]1O2`, for which the Emax came out at 50.3%.

For the origin of these results see ChEMBL document CHEMBL5143548, “Morphinan derivatives with an oxabicyclo[3.2.1]octane structure as dual agonists toward δ and κ opioid receptors” (Bioorg Med Chem, 2022).
